{"source": "the kinase profiling compilation of Christmann-Franck et al. (2016)", "assay_in_all_cases": "Flashplate", "key": {"AKT2 (human)": {"target": "AKT2 (human) (UniProt P31751)", "sequence (P31751 whole entry, looked up)": "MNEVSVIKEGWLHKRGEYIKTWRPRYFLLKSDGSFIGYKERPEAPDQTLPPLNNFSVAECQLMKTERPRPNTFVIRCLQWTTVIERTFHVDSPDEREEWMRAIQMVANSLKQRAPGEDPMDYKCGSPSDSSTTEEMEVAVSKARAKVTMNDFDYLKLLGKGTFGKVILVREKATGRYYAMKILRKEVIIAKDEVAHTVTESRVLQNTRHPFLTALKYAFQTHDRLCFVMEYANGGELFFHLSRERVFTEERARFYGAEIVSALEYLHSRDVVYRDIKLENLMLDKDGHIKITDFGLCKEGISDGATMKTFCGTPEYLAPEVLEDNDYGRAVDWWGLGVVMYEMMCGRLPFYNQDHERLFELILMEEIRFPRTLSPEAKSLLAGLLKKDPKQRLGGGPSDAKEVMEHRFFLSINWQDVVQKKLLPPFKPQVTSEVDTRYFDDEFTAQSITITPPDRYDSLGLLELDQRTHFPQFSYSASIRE"}, "AKT3 (human)": {"target": "AKT3 (human) (UniProt Q9Y243)", "sequence (Q9Y243 whole entry, looked up)": "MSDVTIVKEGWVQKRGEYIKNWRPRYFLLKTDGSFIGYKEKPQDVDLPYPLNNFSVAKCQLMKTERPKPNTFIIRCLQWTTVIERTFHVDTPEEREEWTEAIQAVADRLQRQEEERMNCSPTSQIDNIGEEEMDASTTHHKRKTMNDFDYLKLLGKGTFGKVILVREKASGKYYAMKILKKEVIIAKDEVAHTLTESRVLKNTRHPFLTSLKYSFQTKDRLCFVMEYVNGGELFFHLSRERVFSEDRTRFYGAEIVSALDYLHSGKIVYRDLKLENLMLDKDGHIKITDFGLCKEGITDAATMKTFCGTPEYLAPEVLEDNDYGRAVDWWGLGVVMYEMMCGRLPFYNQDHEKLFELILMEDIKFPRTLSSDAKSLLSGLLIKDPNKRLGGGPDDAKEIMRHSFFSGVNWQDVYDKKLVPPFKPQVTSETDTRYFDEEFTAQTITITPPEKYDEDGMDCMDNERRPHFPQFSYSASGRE"}, "BRSK1 (human)": {"target": "BRSK1 (human) (UniProt Q8TDC3)"}, "CAMK1 (human)": {"target": "CAMK1 (human) (UniProt Q14012)", "sequence (Q14012 whole entry, looked up)": "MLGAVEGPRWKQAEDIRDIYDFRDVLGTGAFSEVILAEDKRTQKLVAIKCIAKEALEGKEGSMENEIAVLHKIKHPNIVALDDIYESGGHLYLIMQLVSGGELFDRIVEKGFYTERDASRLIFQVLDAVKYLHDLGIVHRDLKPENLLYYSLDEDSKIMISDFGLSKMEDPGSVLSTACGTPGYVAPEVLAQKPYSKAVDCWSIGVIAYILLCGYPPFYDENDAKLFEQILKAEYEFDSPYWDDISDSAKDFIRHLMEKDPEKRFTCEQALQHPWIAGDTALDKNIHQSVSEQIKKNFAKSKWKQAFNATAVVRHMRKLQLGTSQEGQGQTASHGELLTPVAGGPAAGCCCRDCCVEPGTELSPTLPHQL"}, "CAMK2D (human)": {"target": "CAMK2D (human) (UniProt Q13557)"}, "CAMK2G (human)": {"target": "CAMK2G (human) (UniProt Q13555)", "sequence (Q13555 whole entry, looked up)": "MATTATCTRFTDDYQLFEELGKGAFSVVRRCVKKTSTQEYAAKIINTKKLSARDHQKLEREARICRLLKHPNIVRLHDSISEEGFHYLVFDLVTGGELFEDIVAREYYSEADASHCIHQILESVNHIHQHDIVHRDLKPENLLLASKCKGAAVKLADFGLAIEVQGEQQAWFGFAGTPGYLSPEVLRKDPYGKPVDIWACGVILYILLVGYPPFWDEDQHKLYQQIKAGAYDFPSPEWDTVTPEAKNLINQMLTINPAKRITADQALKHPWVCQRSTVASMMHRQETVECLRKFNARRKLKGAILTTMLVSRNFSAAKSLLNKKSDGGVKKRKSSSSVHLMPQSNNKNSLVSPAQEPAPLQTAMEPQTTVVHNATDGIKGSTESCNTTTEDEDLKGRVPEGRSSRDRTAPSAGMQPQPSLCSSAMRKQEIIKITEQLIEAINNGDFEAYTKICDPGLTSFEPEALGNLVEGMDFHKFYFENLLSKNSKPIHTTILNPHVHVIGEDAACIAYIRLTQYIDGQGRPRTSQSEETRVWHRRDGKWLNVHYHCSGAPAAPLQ"}, "CDC7 (human)": {"target": "CDC7 (human) (UniProt O00311)", "sequence (O00311 whole entry, looked up)": "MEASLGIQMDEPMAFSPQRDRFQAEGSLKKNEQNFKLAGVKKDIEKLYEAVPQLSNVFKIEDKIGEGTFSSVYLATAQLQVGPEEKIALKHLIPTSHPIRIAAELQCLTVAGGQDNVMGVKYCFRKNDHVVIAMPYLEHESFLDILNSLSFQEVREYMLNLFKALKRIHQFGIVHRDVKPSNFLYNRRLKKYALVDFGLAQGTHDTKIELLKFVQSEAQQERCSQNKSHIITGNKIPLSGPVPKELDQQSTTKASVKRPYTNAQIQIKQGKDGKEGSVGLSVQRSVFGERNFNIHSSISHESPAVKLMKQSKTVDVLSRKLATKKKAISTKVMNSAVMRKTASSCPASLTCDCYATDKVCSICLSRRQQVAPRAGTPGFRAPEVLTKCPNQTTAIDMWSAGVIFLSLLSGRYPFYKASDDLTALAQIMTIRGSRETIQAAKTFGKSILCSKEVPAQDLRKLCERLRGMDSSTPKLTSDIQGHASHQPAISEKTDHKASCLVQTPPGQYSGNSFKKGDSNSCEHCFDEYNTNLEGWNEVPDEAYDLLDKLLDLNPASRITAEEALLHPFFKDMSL"}, "CHEK1 (human)": {"target": "CHEK1 (human) (UniProt O14757)"}, "CHEK2 (human)": {"target": "CHEK2 (human) (UniProt O96017)"}, "CLK2 (human)": {"target": "CLK2 (human) (UniProt P49760)"}, "CLK4 (human)": {"target": "CLK4 (human) (UniProt Q9HAZ1)"}, "CSNK1A1 (human)": {"target": "CSNK1A1 (human) (UniProt P48729)"}, "DCLK1 (human)": {"target": "DCLK1 (human) (UniProt O15075)", "sequence (O15075 whole entry, looked up)": "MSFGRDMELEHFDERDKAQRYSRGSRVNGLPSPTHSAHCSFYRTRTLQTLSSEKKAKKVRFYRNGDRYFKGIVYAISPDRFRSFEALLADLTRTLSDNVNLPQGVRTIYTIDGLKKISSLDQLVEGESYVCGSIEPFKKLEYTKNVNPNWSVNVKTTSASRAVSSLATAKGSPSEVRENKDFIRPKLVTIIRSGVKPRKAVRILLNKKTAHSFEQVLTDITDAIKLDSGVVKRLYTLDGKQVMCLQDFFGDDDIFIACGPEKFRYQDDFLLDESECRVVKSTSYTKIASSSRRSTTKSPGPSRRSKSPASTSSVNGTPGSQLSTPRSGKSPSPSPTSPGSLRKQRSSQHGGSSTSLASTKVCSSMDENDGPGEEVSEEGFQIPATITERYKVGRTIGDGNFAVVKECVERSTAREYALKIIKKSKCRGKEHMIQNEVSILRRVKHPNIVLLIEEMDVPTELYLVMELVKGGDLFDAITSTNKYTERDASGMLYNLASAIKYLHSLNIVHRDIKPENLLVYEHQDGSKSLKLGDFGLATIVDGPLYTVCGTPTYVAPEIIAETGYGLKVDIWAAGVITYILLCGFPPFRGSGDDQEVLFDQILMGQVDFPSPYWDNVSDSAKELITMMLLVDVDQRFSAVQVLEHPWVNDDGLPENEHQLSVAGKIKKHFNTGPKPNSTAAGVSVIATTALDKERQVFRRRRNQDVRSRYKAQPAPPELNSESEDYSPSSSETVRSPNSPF"}, "DYRK1A (human)": {"target": "DYRK1A (human) (UniProt Q13627)"}, "GSK3A (human)": {"target": "GSK3A (human) (UniProt P49840)"}, "GSK3B (human)": {"target": "GSK3B (human) (UniProt P49841)"}, "HIPK2 (human)": {"target": "HIPK2 (human) (UniProt Q9H2X6)"}, "HIPK4 (human)": {"target": "HIPK4 (human) (UniProt Q8NE63)"}, "MAP4K2 (human)": {"target": "MAP4K2 (human) (UniProt Q12851)"}, "MAP4K4 (human)": {"target": "MAP4K4 (human) (UniProt O95819)"}, "MAPK1 (human)": {"target": "MAPK1 (human) (UniProt P28482)"}, "MAPK12 (human)": {"target": "MAPK12 (human) (UniProt P53778)"}, "MAPK13 (human)": {"target": "MAPK13 (human) (UniProt O15264)"}, "MAPKAPK2 (human)": {"target": "MAPKAPK2 (human) (UniProt P49137)"}, "MAPKAPK3 (human)": {"target": "MAPKAPK3 (human) (UniProt Q16644)"}, "MELK (human)": {"target": "MELK (human) (UniProt Q14680)"}, "PAK4 (human)": {"target": "PAK4 (human) (UniProt O96013)", "sequence (O96013 whole entry, looked up)": "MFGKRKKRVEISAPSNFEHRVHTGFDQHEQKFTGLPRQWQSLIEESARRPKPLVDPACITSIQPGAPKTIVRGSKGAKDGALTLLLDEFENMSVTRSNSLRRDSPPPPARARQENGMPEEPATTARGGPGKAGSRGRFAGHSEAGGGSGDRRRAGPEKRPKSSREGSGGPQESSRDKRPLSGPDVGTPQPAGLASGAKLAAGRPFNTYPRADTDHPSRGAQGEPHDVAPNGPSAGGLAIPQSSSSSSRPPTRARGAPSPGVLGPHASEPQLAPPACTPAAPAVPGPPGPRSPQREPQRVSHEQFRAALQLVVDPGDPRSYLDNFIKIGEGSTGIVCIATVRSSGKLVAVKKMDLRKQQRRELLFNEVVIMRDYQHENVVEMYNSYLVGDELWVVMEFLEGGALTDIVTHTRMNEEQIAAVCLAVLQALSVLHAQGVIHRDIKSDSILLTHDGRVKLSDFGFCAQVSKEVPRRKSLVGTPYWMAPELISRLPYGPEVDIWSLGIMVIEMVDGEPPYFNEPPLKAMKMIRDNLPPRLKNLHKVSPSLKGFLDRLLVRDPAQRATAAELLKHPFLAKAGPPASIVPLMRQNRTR"}, "PBK (human)": {"target": "PBK (human) (UniProt Q96KB5)"}, "PDPK1 (human)": {"target": "PDPK1 (human) (UniProt O15530)", "sequence (O15530 whole entry, looked up)": "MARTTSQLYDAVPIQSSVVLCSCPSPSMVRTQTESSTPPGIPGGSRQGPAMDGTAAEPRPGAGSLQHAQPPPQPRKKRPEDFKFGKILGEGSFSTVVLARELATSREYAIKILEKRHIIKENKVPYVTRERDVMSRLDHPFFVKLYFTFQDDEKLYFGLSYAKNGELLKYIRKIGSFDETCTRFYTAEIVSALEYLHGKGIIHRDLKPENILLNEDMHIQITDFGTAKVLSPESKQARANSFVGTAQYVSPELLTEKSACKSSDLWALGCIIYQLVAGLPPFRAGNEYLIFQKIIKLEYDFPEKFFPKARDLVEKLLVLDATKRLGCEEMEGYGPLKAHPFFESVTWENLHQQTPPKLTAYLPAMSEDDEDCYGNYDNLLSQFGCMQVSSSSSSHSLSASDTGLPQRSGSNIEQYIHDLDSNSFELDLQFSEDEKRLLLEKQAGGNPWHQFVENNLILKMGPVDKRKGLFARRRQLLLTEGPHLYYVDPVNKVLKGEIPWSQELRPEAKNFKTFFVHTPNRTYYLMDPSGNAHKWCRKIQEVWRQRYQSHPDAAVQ"}, "PHKG2 (human)": {"target": "PHKG2 (human) (UniProt P15735)"}, "PIM1 (human)": {"target": "PIM1 (human) (UniProt P11309)"}, "PIM3 (human)": {"target": "PIM3 (human) (UniProt Q86V86)"}, "PRKACA (human)": {"target": "PRKACA (human) (UniProt P17612)"}, "PRKCZ (human)": {"target": "PRKCZ (human) (UniProt Q05513)"}, "PRKX (human)": {"target": "PRKX (human) (UniProt P51817)"}, "ROCK1 (human)": {"target": "ROCK1 (human) (UniProt Q13464)"}, "SRPK1 (human)": {"target": "SRPK1 (human) (UniProt Q96SB4)"}, "STK17A (human)": {"target": "STK17A (human) (UniProt Q9UEE5)", "sequence (Q9UEE5 whole entry, looked up)": "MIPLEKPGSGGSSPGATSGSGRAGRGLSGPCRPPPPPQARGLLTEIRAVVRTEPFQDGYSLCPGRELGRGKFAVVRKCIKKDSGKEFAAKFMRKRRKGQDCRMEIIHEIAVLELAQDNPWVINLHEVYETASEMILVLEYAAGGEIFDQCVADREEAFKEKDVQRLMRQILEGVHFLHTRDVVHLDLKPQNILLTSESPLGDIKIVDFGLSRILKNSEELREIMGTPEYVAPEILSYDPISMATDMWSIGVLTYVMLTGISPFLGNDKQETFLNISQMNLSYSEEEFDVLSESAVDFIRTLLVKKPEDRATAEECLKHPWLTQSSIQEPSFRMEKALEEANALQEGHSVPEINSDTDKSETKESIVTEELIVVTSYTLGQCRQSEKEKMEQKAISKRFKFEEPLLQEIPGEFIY"}, "STK3 (human)": {"target": "STK3 (human) (UniProt Q13188)"}, "TAOK1 (human)": {"target": "TAOK1 (human) (UniProt Q7L7X3)"}, "TSSK1B (human)": {"target": "TSSK1B (human) (UniProt Q9BXA7)"}}, "data": [{"smiles": "O=C1c2ccccc2-c2n[nH]c3cccc1c23", "values": [{"measurement": "Ki", "setting": "AKT2 (human)", "value": "> 7940", "unit": "nM"}, {"measurement": "Ki", "setting": "AKT3 (human)", "value": "> 10000", "unit": "nM"}, {"measurement": "Ki", "setting": "BRSK1 (human)", "value": 794, "unit": "nM"}, {"measurement": "Ki", "setting": "CAMK1 (human)", "value": "> 1580", "unit": "nM"}, {"measurement": "Ki", "setting": "CAMK2D (human)", "value": 1000, "unit": "nM"}, {"measurement": "Ki", "setting": "CAMK2G (human)", "value": 1580, "unit": "nM"}, {"measurement": "Ki", "setting": "CDC7 (human)", "value": 1000, "unit": "nM"}, {"measurement": "Ki", "setting": "CHEK1 (human)", "value": 1260, "unit": "nM"}, {"measurement": "Ki", "setting": "CHEK2 (human)", "value": 501, "unit": "nM"}, {"measurement": "Ki", "setting": "CLK2 (human)", "value": 631, "unit": "nM"}, {"measurement": "Ki", "setting": "CLK4 (human)", "value": 63.1, "unit": "nM"}, {"measurement": "Ki", "setting": "CSNK1A1 (human)", "value": 316, "unit": "nM"}, {"measurement": "Ki", "setting": "DCLK1 (human)", "value": "> 10000", "unit": "nM"}, {"measurement": "Ki", "setting": "DYRK1A (human)", "value": 126, "unit": "nM"}, {"measurement": "Ki", "setting": "GSK3A (human)", "value": 1260, "unit": "nM"}, {"measurement": "Ki", "setting": "GSK3B (human)", "value": 316, "unit": "nM"}, {"measurement": "Ki", "setting": "HIPK2 (human)", "value": 200, "unit": "nM"}, {"measurement": "Ki", "setting": "HIPK4 (human)", "value": 2000, "unit": "nM"}, {"measurement": "Ki", "setting": "MAP4K2 (human)", "value": 50.1, "unit": "nM"}, {"measurement": "Ki", "setting": "MAP4K4 (human)", "value": 316, "unit": "nM"}, {"measurement": "Ki", "setting": "MAPK1 (human)", "value": 5010, "unit": "nM"}, {"measurement": "Ki", "setting": "MAPK12 (human)", "value": "> 6310", "unit": "nM"}, {"measurement": "Ki", "setting": "MAPK13 (human)", "value": "> 7940", "unit": "nM"}, {"measurement": "Ki", "setting": "MAPKAPK2 (human)", "value": "> 7940", "unit": "nM"}, {"measurement": "Ki", "setting": "MAPKAPK3 (human)", "value": "> 10000", "unit": "nM"}, {"measurement": "Ki", "setting": "MELK (human)", "value": 398, "unit": "nM"}, {"measurement": "Ki", "setting": "PAK4 (human)", "value": "> 5010", "unit": "nM"}, {"measurement": "Ki", "setting": "PBK (human)", "value": 1000, "unit": "nM"}, {"measurement": "Ki", "setting": "PDPK1 (human)", "value": 631, "unit": "nM"}, {"measurement": "Ki", "setting": "PHKG2 (human)", "value": 631, "unit": "nM"}, {"measurement": "Ki", "setting": "PIM1 (human)", "value": 501, "unit": "nM"}, {"measurement": "Ki", "setting": "PIM3 (human)", "value": 200, "unit": "nM"}, {"measurement": "Ki", "setting": "PRKACA (human)", "value": "> 7940", "unit": "nM"}, {"measurement": "Ki", "setting": "PRKCZ (human)", "value": "> 7940", "unit": "nM"}, {"measurement": "Ki", "setting": "PRKX (human)", "value": "> 1580", "unit": "nM"}, {"measurement": "Ki", "setting": "ROCK1 (human)", "value": 2000, "unit": "nM"}, {"measurement": "Ki", "setting": "SRPK1 (human)", "value": "> 7940", "unit": "nM"}, {"measurement": "Ki", "setting": "STK17A (human)", "value": 39.8, "unit": "nM"}, {"measurement": "Ki", "setting": "STK3 (human)", "value": 316, "unit": "nM"}, {"measurement": "Ki", "setting": "TAOK1 (human)", "value": 5010, "unit": "nM"}, {"measurement": "Ki", "setting": "TSSK1B (human)", "value": "> 1580", "unit": "nM"}]}]}
